System: genotype A, "Long" strain RSV
Assay: RSV-A assay (CPE, ATPlite readout in Hep-2 cells)
Type: cell-based
Details: human respiratory syncytial virus, HEp-2, Hep-2 cells, genotype A "Long" strain RSV, MOI 0.1; read-out: Human RSV-A (“Long” strain) EC50
Procedure, shortened: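 Protection from RSV-induced cytopathic effect, measured as ATPlite luminescence after 5 days, gave EC50 values. Assay used genotype A Long strain at MOI 0.1 on Hep-2 cells seeded at 8,000/well in DMEM growth media with 10% FBS; compounds tested as 2-fold dilutions in duplicate.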

Compared with C[C@]1(C(N)=O)COc2c1cc([C@@](O)(CNC(=O)c1cc(OC(F)F)c3ncccc3c1)C(F)(F)F)nc2-c1ccc(F)cc1 [Example 59], CC(Oc1cc(C(=O)NC[C@](O)(c2cc3c(c(-c4ccc(F)cc4)n2)OC[C@]3(C)C(N)=O)C(F)(F)F)cc2cccnc12)C(N)=O (stereo partly shown) [Example 383] is higher in EC50: under 200 nM for the first, over 200 nM for the second. The first is the more potent here.

Cc1cnc2c(NC(=O)C3(C)COC3)cc(C(=O)NC[C@](O)(c3cc4c(c(-c5ccc(F)cc5)n3)OC[C@]4(C)C(N)=O)C(F)(F)F)cc2c1 [Example 620] and Cc1cc2cc(C(=O)NC[C@](O)(c3cc4c(c(-c5ccc(F)cc5)n3)OC[C@]4(C)C(N)=O)C(F)(F)F)cc(NC(=O)C3(F)CC3)c2nc1C [Example 662] cannot be ordered by EC50: under 200 nM for the first, under 200 nM for the second.

Going from C[C@]1(C(N)=O)COc2c1cc([C@@](O)(CNC(=O)c1cc(OCC(=O)NC[C@@H](O)CO)c3ncccc3c1)C(F)(F)F)nc2-c1ccc(F)cc1 [Example 379] to CC(C)(O)CNC(=O)[C@@]1(C)COc2c1cc([C@@](O)(CNC(=O)c1cc(OCC(N)=O)c3ncccc3c1)C(F)(F)F)nc2-c1ccc(F)cc1 [Example 506], the EC50 falls from over 200 nM to under 200 nM. The second is the more potent here.

Compared with C[C@]1(C(N)=O)COc2c1cc([C@@](O)(CNC(=O)c1ccc(-c3ccc(C(F)(F)F)cn3)c(OC3CC3)c1)C(F)(F)F)nc2-c1ccc(F)cc1 [Example 156], C[C@]1(C(N)=O)COc2c1cc([C@@](O)(CNC(=O)c1ccc(-c3cocn3)c(OC3CC3)c1)C(F)(F)F)nc2-c1ccc(F)cc1 [Example 198] is lower in EC50: over 200 nM for the first, under 200 nM for the second.

Compared with CN1Cc2cc(C(=O)NC[C@](O)(c3cc4c(c(-c5ccc(F)cc5)n3)OC[C@]4(C)C(=O)NCC(C)(C)O)C(F)(F)F)ccc2C1=O [Example 643], Cn1c(=O)[nH]c2cc(C(=O)NC[C@](O)(c3cc4c(c(-c5ccc(F)cc5)n3)OC[C@]4(C)C(N)=O)C(F)(F)F)ccc21 [Example 325] is higher in EC50: under 200 nM for the first, over 200 nM for the second. The first is the more potent here.

COc1cc(C(=O)NC[C@](O)(c2cc3c(c(-c4ccc(F)cc4)n2)OC[C@]3(C)CNC2CC2)C(F)(F)F)ccc1OC1CC1 [Example 17] and COc1cc(C(=O)NC[C@](O)(c2cc3c(c(-c4ccc(F)cc4)n2)OC[C@]3(C)CNC2CC2)C(F)(F)F)ccc1OCCO [Example 3] cannot be ordered by EC50: under 200 nM for the first, under 200 nM for the second.

COc1cc(C(=O)NC[C@](O)(c2cc3c(c(-c4ccc(F)cc4)n2)OC[C@]3(C)C(N)=O)C2CC2)cc2cccnc12 [Example 249] and COc1cc(C(=O)NC[C@](O)(c2cc3c(c(-c4ccc(F)c(Cl)c4)n2)OC[C@]3(C)C(N)=O)C2CC2)cc2cc(C)cnc12 [Example 258] cannot be ordered by EC50: under 200 nM for the first, under 200 nM for the second.

CCc1ncc(-c2cc(C(=O)NC[C@](O)(c3cc4c(c(-c5ccc(F)cc5)n3)OC[C@]4(C)C(N)=O)C(F)(F)F)ccc2OC2CC2)cn1 [Example 131] and C[C@]1(C(N)=O)COc2c1cc([C@@](O)(CNC(=O)c1ccc(OC3CC3)c(-c3cnc(C4CC4)nc3)c1)C(F)(F)F)nc2-c1ccc(F)cc1 [Example 112] cannot be ordered by EC50: under 200 nM for the first, under 200 nM for the second.

Cc1noc(C)c1-c1ccc(C(=O)NC[C@](O)(c2cc3c(c(-c4ccc(F)cc4)n2)OC[C@]3(C)C(N)=O)C(F)(F)F)cc1OC1CC1 [Example 172] and C[C@]1(C(N)=O)COc2c1cc([C@@](O)(CNC(=O)c1ccc(-c3cscn3)c(OC3CC3)c1)C(F)(F)F)nc2-c1ccc(F)cc1 [Example 174] cannot be ordered by EC50: over 200 nM for the first, over 200 nM for the second.

C[C@]1(C(N)=O)COc2c1cc([C@@](O)(CNC(=O)c1cc(NC(=O)C(F)F)c3ncccc3c1)C(F)(F)F)nc2-c1ccc(F)cc1 [Example 396] and CNc1cc(C(=O)NC[C@](O)(c2cc3c(c(-c4ccc(F)cc4)n2)OC[C@]3(C)C(N)=O)C(F)(F)F)cc2cccnc12 [Example 385] cannot be ordered by EC50: under 200 nM for the first, under 200 nM for the second.

First: C[C@@H](O)COc1ccc(C(=O)NC[C@](O)(c2cc3c(c(-c4ccc(F)cc4)n2)OC[C@]3(C)C(N)=O)C(F)(F)F)cc1-c1cncnc1 [Example 203]
Second: COc1cc(C(=O)NC[C@](O)(c2cc3c(c(-c4ccc(F)cc4)n2)OC[C@]3(C)C(N)=O)C(F)(F)F)ccc1-c1cnco1 [Example 187]
The EC50 of the first is higher: over 200 nM for the first, under 200 nM for the second. The second is the more potent here.

C[C@]1(C(N)=O)COc2c1cc([C@@](O)(CNC(=O)c1cc3cccnc3[nH]1)C(F)(F)F)nc2-c1ccc(F)cc1 [Example 303] and C[C@]1(C(N)=O)COc2c1cc([C@@](O)(CNC(=O)c1cnc3ncccc3c1)C(F)(F)F)nc2-c1ccc(F)cc1 [Example 239] cannot be ordered by EC50: under 200 nM for the first, under 200 nM for the second.

COc1cc(C(=O)NC[C@](O)(c2cc3c(c(-c4ccc(Cl)c(F)c4)n2)OC[C@]3(C)C(N)=O)C(F)(F)F)cc2sc(N)nc12 [Example 434] and COc1cc(C(=O)NC[C@](O)(c2cc3c(c(-c4ccc(F)c(Cl)c4)n2)OC[C@]3(C)C(N)=O)C(F)(F)F)cc2cn(C)nc12 [Example 428] cannot be ordered by EC50: under 200 nM for the first, under 200 nM for the second.

C[C@]1(C(N)=O)COc2c1cc([C@@](O)(CNC(=O)c1ccc(-c3cncs3)c(OC3CC3)c1)C(F)(F)F)nc2-c1ccc(F)cc1 [Example 175] and C[C@]1(C(N)=O)COc2c1cc([C@@](O)(CNC(=O)c1ccc(-c3cnccn3)c(OC3CC3)c1)C(F)(F)F)nc2-c1ccc(F)cc1 [Example 166] cannot be ordered by EC50: under 200 nM for the first, under 200 nM for the second.

Cn1nnc2cc(C(=O)NC[C@](O)(c3cc4c(c(-c5ccc(F)cc5)n3)OC[C@]4(C)C(N)=O)C(F)(F)F)ccc21 [Example 315] and C[C@]1(C(N)=O)COc2c1cc([C@@](O)(CNC(=O)c1ccc3nccnc3c1)C(F)(F)F)nc2-c1ccc(F)cc1 [Example 234] cannot be ordered by EC50: over 200 nM for the first, over 200 nM for the second.

C[C@]1(C(=O)NCCc2ccccc2)COc2c1cc([C@@](O)(CNC(=O)c1cc(OC3CC3)c3ncccc3c1)C(F)(F)F)nc2-c1ccc(F)cc1 [Example 486] and C[C@]1(C(=O)NC(=N)N)COc2c1cc([C@@](O)(CNC(=O)c1cc(OC3CC3)c3ncccc3c1)C(F)(F)F)nc2-c1ccc(F)cc1 [Example 458] cannot be ordered by EC50: over 200 nM for the first, over 200 nM for the second.

C[C@]1(C(N)=O)COc2c1cc([C@@](O)(CNC(=O)c1ccc3ncc(=O)[nH]c3c1)C(F)(F)F)nc2-c1ccc(F)cc1 [Example 327] and C[C@]1(C(N)=O)COc2c1cc([C@@](O)(CNC(=O)c1ccc3[nH]c(=O)[nH]c3c1)C(F)(F)F)nc2-c1ccc(F)cc1 [Example 321] cannot be ordered by EC50: over 200 nM for the first, over 200 nM for the second.

Going from C[C@]1(C(=O)N2CCC(C#N)C2)COc2c1cc([C@@](O)(CNC(=O)c1cc(OC3CC3)c3ncccc3c1)C(F)(F)F)nc2-c1ccc(F)cc1 (stereo partly shown) [Example 555] to CNC(=O)NCCNC(=O)[C@@]1(C)COc2c1cc([C@@](O)(CNC(=O)c1cc(OC3CC3)c3ncccc3c1)C(F)(F)F)nc2-c1ccc(F)cc1 [Example 461], the EC50 rises from under 200 nM to over 200 nM. The first is the more potent here.

First: C[C@]1(C(N)=O)COc2c1cc([C@@](O)(CNC(=O)c1ccc(N3CCC3)c(OC3CC3)c1)C(F)(F)F)nc2-c1ccc(F)cc1 [Example 159]
Second: C[C@]1(C(N)=O)COc2c1cc([C@@](O)(CNC(=O)c1ccc(N3CCOCC3)c(OC3CC3)c1)C(F)(F)F)nc2-c1ccc(F)cc1 [Example 160]
The EC50 of the first is lower: under 200 nM for the first, over 200 nM for the second.

First: C[C@@H](O)COc1ccc(C(=O)NC[C@](O)(c2cc3c(c(-c4ccc(F)cc4)n2)OC[C@]3(F)C(N)=O)C(F)(F)F)cc1OC1CC1 [Example 674]
Second: C[C@]1(C(N)=O)COc2c1cc([C@@](O)(CNC(=O)c1ccc(OC3CC3)c(N3CCOCC3)c1)C(F)(F)F)nc2-c1ccc(F)cc1 [Example 133]
The EC50 of the first is higher: over 200 nM for the first, under 200 nM for the second. The second is the more potent here.

Going from C[C@]1(C(N)=O)COc2c1cc([C@@](O)(CNC(=O)c1cc(C(N)=O)ccn1)C(F)(F)F)nc2-c1ccc(F)cc1 [Example 295] to Cc1n[nH]c2ccc(C(=O)NC[C@](O)(c3cc4c(c(-c5ccc(F)cc5)n3)OC[C@]4(C)C(N)=O)C(F)(F)F)cc12 [Example 658], the EC50 falls from over 200 nM to under 200 nM.

C[C@]1(C(N)=O)COc2c1cc([C@@](O)(CNC(=O)c1ccc3nc(NC4CC4)sc3c1)C(F)(F)F)nc2-c1ccc(F)cc1 [Example 440] and C[C@]1(C(N)=O)COc2c1cc([C@@](O)(CNC(=O)c1cc(NC(=O)NC3CC3)c3ncccc3c1)C(F)(F)F)nc2-c1ccc(F)cc1 [Example 415] cannot be ordered by EC50: under 200 nM for the first, under 200 nM for the second.

Cc1cnc2c(NC(=O)Nc3cccnc3)cc(C(=O)NC[C@](O)(c3cc4c(c(-c5ccc(F)cc5)n3)OC[C@]4(C)C(N)=O)C(F)(F)F)cc2c1 [Example 625] and C[C@]1(C(N)=O)COc2c1cc([C@@](O)(CNC(=O)c1cc(Nc3ncc(F)cn3)c3ncccc3c1)C(F)(F)F)nc2-c1ccc(F)cc1 [Example 349] cannot be ordered by EC50: under 200 nM for the first, under 200 nM for the second.

COc1cc(C(=O)NC[C@](O)(c2cc3c(c(-c4ccc(F)cc4)n2)OC[C@]3(C)C(N)=O)C(F)(F)F)ccc1-c1cocn1 [Example 199] and COc1cc(C(=O)NC[C@](O)(c2cc3c(c(-c4ccc(F)cc4)n2)OC[C@]3(C)C(N)=O)C(F)(F)F)ccc1-c1conc1C [Example 186] cannot be ordered by EC50: under 200 nM for the first, under 200 nM for the second.

Compared with COc1cc(C(=O)NC[C@](O)(c2cc3c(c(-c4ccc(F)cc4)n2)OC[C@]3(C)C(=O)NC23CC(C2)C3)C(F)(F)F)cc2cccnc12 [Example 54], C[C@]1(C(N)=O)COc2c1cc([C@@](O)(CNC(=O)c1ccc(OC3CC3)c(-c3ccnc(C(F)(F)F)c3)c1)C(F)(F)F)nc2-c1ccc(F)cc1 [Example 105] is higher in EC50: under 200 nM for the first, over 200 nM for the second. The first is the more potent here.

CCOc1ccc2[nH]c(C(=O)NC[C@](O)(c3cc4c(c(-c5ccc(F)cc5)n3)OC[C@]4(C)C(N)=O)C(F)(F)F)cc2c1 [Example 297] and C[C@]1(C(N)=O)COc2c1cc([C@@](O)(CNC(=O)c1ccc3ccccc3n1)C(F)(F)F)nc2-c1ccc(F)cc1 [Example 243] cannot be ordered by EC50: over 200 nM for the first, over 200 nM for the second.

COc1cc(C(=O)NC[C@](O)(c2cc3c(c(C#Cc4ccc(Cl)cc4F)n2)OC[C@]3(C)C(N)=O)C(F)(F)F)ccc1OC1CC1 [Example 514] and C[C@]1(CNCC2CC2)COc2c1cc([C@@](O)(CNC(=O)c1ccc(OC(F)F)c(O)c1)C(F)(F)F)nc2-c1ccc(F)cc1 [Example 42] cannot be ordered by EC50: over 200 nM for the first, over 200 nM for the second.

Work on COc1cc(C(=O)NC[C@](O)(C2=CC3C(OC[C@]3(C)C(N)=O)C(c3ccc(F)cc3)=N2)C(F)(F)F)ccc1Cl (stereo partly shown) [Example 329] yielded an EC50 of under 200 nM.
